Experimental data: patent US6218112A, “Optimization of gene delivery and gene delivery system” (Cobra Therapeutics Limited, priority 1997, dated 2001)
Entries after “also recorded” stand apart in the source; their conditions may differ. * marks the point of attachment. Palmitoyl = CCCCCCCCCCCCCCCC(=O)*; Acm = CC(=O)NC*

Legend:
[1] = system: KLN-205 squamous epithelial syngenic tumour cells; assay: In vivo transfection of KLN-205 tumours in DBA2 mice by local injection of peptide/plasmid complexes (nitroreductase immunostaining); set-up: species or system mouse; conditions: 0.5 μg peptide/μg DNA, intratumoural injection
Protocol: A representative in via cell transfection system is transfection of tumor cells using a murine carcinoma model.
The murine carcinoma model DBA2 containing the squamous epithelial syngenic tumour cell line KLN-205 was prepared as described in the Examples. A transfecting complex was prepared using a solution of plasmid DNA encoding a reporter gene or, for example, nitroreductase and a selected NBC peptide 0.5 μg peptide/μg DNA, as described herein. Where desired, a conjugate peptide was added to the transfecting complex, at a concentration of 0.1-0.3 μg […] peptide/μg DNA.
Transfection efficiency may be determined in a number of ways, including assessing the effect of the reporter gene on the target tissue, or by quantitating the gene product. Below, tissues samples were obtained and nitroreductase gene expression was ascertained via staining of tissue sections.
The ability to transfect tumor cells in vivo in mice was tested using plasmid nucleic acid carrying the nitroreductase reporter gene condensed on each of the following peptides: NBC15, NBC8, NBC9, NBC11, NBC7.
DBA2--male mice, aged 5-10 weeks were injected subcutaneously in each flank with a squamous epithelial syngenic tumour cell line KLN-205. The cell line was grown up in 175 ml T-flasks in standard EMEM medium containing 10% foetal calf serum. When the cells reached a density of 4×10^6 they were suspended by a standard trypsinization technique, washed in PBS and diluted to a final concentration of […].
The anaesthetic was Enflurane (Alynane; Anaquest, Ltd., Windlesham, Surrey UK): Ketamine (10% Ketaset, Willows Francis Veterinary, Cramley, West Sussex, UK); Rompun (2%, Bayer UK, Ltd., Suffolk, UK). For 10 ml anaesthetic mixture: 8.5 ml PBS; 1 ml Ketamine; 0.5 ml Rompun. Each animal was injected intra-peritoneally with 200 μl/animal using 1 ml syringe with 25 gauge needle. Once anaesthetized, the tumour is manipulated between the fingers lifting it slightly away from the animal's body and at the same time apply minimum pressure to the tumour. Using a 0.5 ml insulin needle the formulated delivery vehicle (a plasmid containing the E. coli nitroreductase gene condensed on a peptide at a ratio of 0.5 μg peptide/μg DNA) to be injected is taken up and the tumour is injected horizontally trying to avoid any visible blood vessels and necrotic or abnormal tissue. Daily monitoring is continued until the experiment is terminated.
7μ sections of frozen tumour tissue are prepared using standard methods and a Cryostat and air dried. Sections are fixed with freshly prepared 4% PFA/PBS for 30 mins at room temperature and then washed twice with 0.01% Tween-20/PBS 5 mins each wash. Sections are then immersed in 0.25% hydrogen peroxide/PBS, at room temperature (20C.) for 30 mins, and then washed three times in 0.01% Tween 20/PBS for 5 mins each wash. Sections are then permeabilised by treatment with ice cold 0.1 % TRITON X-100 for 5 mins, followed by a further two washes in 0.01% Tween-20/PBS 5mins each wash. The sections are then blocked with 5% NGS/PBS 60mins at room temperature in a wetbox. After decanting the blocking solution, 0.5 ml diluted antiserum/slide (1:400 in 2.5% NGS) is added and the sections incubated for 60 mins at room temperature. Slides are then washed three times in 0.01% Tween-20/PBS 5 mins each wash. Secondary antibody (0.5 ml) from ABC Elite Vector stain kit is added as follows and incubated 30 mins at room temperature in a wetbox.
The tumour is a murine syngenic squamous carcinoma produced by subcutaneous injection of KLN205 cells. When the tumours were approximately 4 mm in diameter they were injected with 20 μl of plasmid DNA formulated with the NBC15 peptide. After 48 h the tumours were excised and sectioned by standard histological techniques and immunostained for expression of the transgene (E. coli nitroreductase). […] In this case the tumours were injected with the same plasmid formulated in 0.5 μg NBC9 peptide/μg DNA.

[2] = system: Jurkat cell line; assay: In vitro transfection with pRSVLuc (luciferase) condensed on peptides; format: cell-based; conditions: peptide 2 μg/μg plasmid DNA, luciferase after 24 h, FIG. 7
Protocol: (§1) After incubation the cells are lysed and are assayed for gene expression. In the case of the luciferase reporter gene, luciferin and ATP are added to lysed cells and the light emitted is measured with a luminometer (see deWet et al., supra).
Cell lines such as Jurkat and K562 grow in suspension and can be transfected and the level of transgene expression (luciferase activity) determined b) the following method. Cells are harvested on the day of assay by centrifugation at 1200 rpm for 5 mins at room temperature. The cell pellet is resuspended in phosphate buffered saline and re-centrifuged. This operation is performed twice. […] The cells are then aliquoted into tubes and 0.75 ml of RPMI medium added, followed by 0.04-0.08 ml of 100 mM Chloroquine and finally 0.25 ml of DNA-complex solution. The transfection is then allowed to proceed by incubating the cells at 37° C. for 4 h. After this time the cells are harvested by centrifugation at 2000 rpm. The cells are then suspended in 1 ml of RPMI medium and re-centrifuged. Finally the cells are suspended in 0.5 ml RPMI medium containing 10% foetal bovine serum. Each 0.5 ml of transfected cell suspension is transferred to a well of a 12 well plastic culture plate containing 1.5 ml of RPMI 10% FBS. The original transfection tube is rinsed with a further 1 ml of medium and the wash transferred to the culture dish making a final volume of 3 ml. The culture plate is then incubated at 37° C. for 24-90 h in an atmosphere of 5% CO2. The contents of each well in the culture dish are transferred to centrifuge tubes and the cells collected by centrifugation at 13000 rpm. The pellet is resuspended in 0.12 ml of Lysis Buffer (100 mM sodium phosphate, pH 7.8; 8 mM magnesium chloride, 1 mM EDTA; 1% Triton X-100 and 15% glycerol) and agitated with a pipette. The lysate is centrifuged at 13000 rpm for 1 min and the supernatant collected. 80 μl of the supernatant are transferred to a luminometer tube. The luciferase activity is then assayed using a Berthold Lumat L9501 luminometer. The assay buffer used is Lysis Buffer containing 10 mM Luciferin and 100 mM ATP. Light produced by the luciferase is integrated over 4s and is described as relative light units (RLU). The data are converted to RLU/ml of lysate, RLU/cell or RLU/mg protein (protein concentration of the lysate having been determined in this case by the BioRAD Lowry assay.
In order to compare the relative efficiency of transfection of complexes composed of different NBC condensation peptides or poly-L-lysine, pRSVLuc DNA at a concentration of 100 μg/ml was condensed using peptide at a ratio of 2 μg/μg plasmid DNA as described herein with the following deviation: prior to addition to the cells (Jurkat cell line) the complexes were diluted to 20 μg/ml with 10% PEG 10 000; 37 mM sodium chloride; 25 mM sodium phosphate, pH 7.4. The cells were assayed for luciferase after 24 h.

[3] = system: Tumor Cells; assay: In vitro transfection with complexes containing lipidated peptides; format: cell-based
Protocol: as §1
For the data provided in FIG. 8, complexes were assembled as described herein using NBC2 and Lip2 as condensing peptides.

[4] = system: cells; assay: Transfection efficiency / activity of complexes (general statement); format: cell-based; conditions: related to affinity for nucleic acid
[5] = system: plasmid nucleic acid pRSVLuc; assay: Surface plasmon resonance (BIAcore) binding kinetics of peptides/conjugates to immobilized biotinylated plasmid DNA
Protocol: In the examples described below, SPR was detected using the BIAcore system. This machine contained an SPR detector and an integrated microfluidic cartridge which is engineered such that an analyte solution (cationic peptide) is continuously passed over the sensor chip. The sensor chip consists of a glass plate coated with a thin film of gold covered in a layer of carboyxymethyl dextran. The chip used has a dextran layer to which streptavidin is covalently attached. The chip is prepared for use by adding biotinylated nucleic acid which will be bound to the chip via the streptavidin-biotin interaction, and the same chip is used in a series of experiments.
As material binds to the immobilized nucleic acid molecule on the sensor chip, the SPR angle of plane polarized light shining on the surface of the chip is monitored by the detector. Changes in angle are defined as resonance units (RU) and data are collected every second. Background effects are detected and automatically subtracted by the use of a control flow cell in line with the nucleic acid flow cell.
A typical sensorgram has three phases: an association phase, an equilibrium phase and a dissociation phase (see FIG. 1). The rise in signal occurs as more peptide binds to the immobilized plasmid DNA until equilibrium conditions are reached. The height of the peak is directly proportional to the mass of peptide bound. If the flow continues with buffer containing no peptide, peptide begins to dissociate from the complex and the resonance signal is reduced. The sensorgram can be used to compute apparent rate constants for each of the three individual processes.
(1) dC/dt=ka [PF ] [Pmax -PB ]-kd [PB ]
Measurement of Binding Kinetics by Surface Plasmon Resonance
A 6 kilobase (kb) plasmid DNA (pRSVLuc) was biotinylated using photoactivatable biotin (Pierce and Warriner) as per manufacturer's instructions.
A sensor chip with immobilized streptavidin (SA5) was conditioned following manufacturer's instructions, i.e., three one-minute injections of 1 M NaCl: 50 mM NaOH followed by one 1 min injection of 0.5% SDS. Flow rate on the BlAcore sensing device was 20 μl per min, running buffer was phosphate buffered saline (PBS). Flow path was flow cells 1 and 2.
The flow path was switched to flow cell 2 only and the flow rate was reduced to 10 μl per minute. Biotinylated plasmid at a concentration of […] in 0.5M NaCl was injected for 3 mins.
Phosphate buffered saline was used as running buffer at a flow rate of 20 μl per minute. The flow path was over flow cells 1 and 2. Flow cell 1 was used as a reference cell. The experiments were carried out at a temperature of 25° C.
Peptides were injected at various concentrations for three minutes. The injection was followed by a 5 min dissociation phase before the injection port was washed. The sensor chip was regenerated by the injection of 2M NaCl for 1 min. If necessary, this injection was repeated to bring the response back down to baseline before the next peptide sample was injected.
The data was analysed using the methods described in the handbook (BIAevaluation 2.1. Software Handbook, Pharmacia Biosensor AB, Uppsala, Sweden).
Essentially the plots were evaluated as follows: The dissociation constant, kd, was determined first. A curve or family of curves (same NBC at different concentrations) were plotted as response (Y) versus time as Ln (Yo/Y) versus time. In the area where the Ln(Yo/Y) curve was linear, a fit of the default dissociation model [AB]=[A]+[B] was made. The association constant, ka, was then calculated by fitting the related association model on that part of the association curve where a plot of In(abs(dY/dt) versus time was linear. KD were approximated by dividing the calculated kd with the calculated ka.

poly-lysine [reference compound]
ranking by numbers of transfected tumor cells (most to least efficient) [1]: NBC15>NBC8, NBC9, NBC11>NBC7>>>poly-lysine
number of transfected tumor cells / level of transfection ([1]; 48 h, nitroreductase immunostaining): the fewest number of transfected tumor cells
rank in order of relative transfection efficiency (most to least efficient) [2]: NBC11>NBC13>NBC8>>NBC15>>>polylysine

CH3-(CH2)14-CONH-KPKAAKPKKPKKKRKVEKKSPKKAKKPAAC(Acm)SEQ ID NO:11-COOH (Palmitoyl-KPKAAKPKKPKKKRKVEKKSPKKAKKPAAC(Acm)-OH; SMILES CCCCCCCCCCCCCCCC(=O)N[C@@H](CCCCN)C(=O)N1CCC[C@H]1C(=O)N[C@@H](CCCCN)C(=O)N[C@@H](C)C(=O)N[C@@H](C)C(=O)N[C@@H](CCCCN)C(=O)N1CCC[C@H]1C(=O)N[C@@H](CCCCN)C(=O)N[C@@H](CCCCN)C(=O)N1CCC[C@H]1C(=O)N[C@@H](CCCCN)C(=O)N[C@@H](CCCCN)C(=O)N[C@@H](CCCCN)C(=O)N[C@@H](CCCNC(=N)N)C(=O)N[C@@H](CCCCN)C(=O)N[C@H](C(=O)N[C@@H](CCC(=O)O)C(=O)N[C@@H](CCCCN)C(=O)N[C@@H](CCCCN)C(=O)N[C@@H](CO)C(=O)N1CCC[C@H]1C(=O)N[C@@H](CCCCN)C(=O)N[C@@H](CCCCN)C(=O)N[C@@H](C)C(=O)N[C@@H](CCCCN)C(=O)N[C@@H](CCCCN)C(=O)N1CCC[C@H]1C(=O)N[C@@H](C)C(=O)N[C@@H](C)C(=O)N[C@@H](CSCNC(C)=O)C(=O)O)C(C)C) [Lip2]
transfection efficiency, lipidated peptide with free underivatized peptide ([3]; Lip2 with NBC2, FIG. 8): transfection efficiency is augmented; also recorded: more than two orders of magnitude
transfection efficiency, condensation with lipidated peptide alone ([3]; complete condensation with palmitoyl-NBC2 (Lip2) alone): extremely poor transfection efficiencies

NH2-KKSPKKAKKPAAKKSPKKAKKPAAKKSPKKAKKPAAKKSPKKAKKPAYC(Acm)-COOH (H-KKSPKKAKKPAAKKSPKKAKKPAAKKSPKKAKKPAAKKSPKKAKKPAYC(Acm)-OH) [NBC10]
transfection efficiency [4]: not completely deleterious to transfection
ka ([5]; apparent rate constant for association, SPR, PBS, 25° C.): 219000 M⁻¹ s⁻¹
kd ([5]; apparent rate constant for dissociation, SPR, PBS, 25° C.): 0.0011 s⁻¹
apparent dissociation constant kd ([5]; approximate values): approximately 1×10^-3 sec^-1
Kd ([5]; approximate values, read-out: equilibrium dissociation constant KD): ~5 nM
